Assay [1] concerns the target T1, TbERK8 (Trypanosoma brucei brucei, UniProt Q38B88).
T1 sequence (Q38B88 1-442): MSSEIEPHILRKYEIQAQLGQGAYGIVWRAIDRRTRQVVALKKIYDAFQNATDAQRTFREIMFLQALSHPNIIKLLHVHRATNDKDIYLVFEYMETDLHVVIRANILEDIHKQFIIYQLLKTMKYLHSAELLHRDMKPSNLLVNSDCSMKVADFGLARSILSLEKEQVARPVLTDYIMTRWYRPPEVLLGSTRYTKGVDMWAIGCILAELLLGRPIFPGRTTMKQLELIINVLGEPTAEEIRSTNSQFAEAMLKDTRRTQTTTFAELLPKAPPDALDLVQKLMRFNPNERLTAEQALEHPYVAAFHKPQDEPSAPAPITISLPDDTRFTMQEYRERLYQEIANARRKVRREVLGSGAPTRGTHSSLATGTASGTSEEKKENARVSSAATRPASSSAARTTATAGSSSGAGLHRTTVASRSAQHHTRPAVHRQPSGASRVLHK
Particulars: cited from earlier work.

Assay [2] deals with T2, HsERK8 (Homo sapiens, UniProt Q8TD08).
T2 construct: plasmid pGEX2T expressing the full-length hERK8 coding region; made in house; host or cells: Escherichia coli Rosetta 2 (DE3)
T2 sequence (Q8TD08 1-544): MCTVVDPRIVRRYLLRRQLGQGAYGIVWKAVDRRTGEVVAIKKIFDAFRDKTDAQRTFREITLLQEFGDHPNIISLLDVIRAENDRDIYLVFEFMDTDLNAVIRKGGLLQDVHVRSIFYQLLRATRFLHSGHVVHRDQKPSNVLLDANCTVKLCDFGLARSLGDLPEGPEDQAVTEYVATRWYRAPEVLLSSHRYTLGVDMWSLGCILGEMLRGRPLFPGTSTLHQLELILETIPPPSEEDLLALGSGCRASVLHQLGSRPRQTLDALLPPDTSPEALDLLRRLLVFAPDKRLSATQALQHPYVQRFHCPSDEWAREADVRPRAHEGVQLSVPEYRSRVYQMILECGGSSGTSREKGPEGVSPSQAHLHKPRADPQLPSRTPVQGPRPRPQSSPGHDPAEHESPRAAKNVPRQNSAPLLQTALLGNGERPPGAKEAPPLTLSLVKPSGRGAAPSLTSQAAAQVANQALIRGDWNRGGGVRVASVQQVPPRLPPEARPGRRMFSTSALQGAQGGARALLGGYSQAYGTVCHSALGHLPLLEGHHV
Particulars: cited from earlier work.

The subject of a further assay is T. brucei. Particulars: cited from earlier work.
Assay [3] has as its target T1, TbERK8. The assay can be described thus: Luciferase-based kinase inhibition assay (ATP luminescence), GST-tagged TbERK8 with MBP substrate. In kind it is biochemical. Set-up: raw luminescence, TbERK8: unit of the concentration uncertain. The settings on record: for raw luminescence, TbERK8: sheet Kinase_glo_080924_IFPS (2), replicate wells. How it is done: (§1) Escherichia coli strain Rosetta 2 (DE3) (Cat# 71397, MilliporeSigma, Burlington, MA) was transformed with the plasmid pGEX2T expressing the full-length hERK8 coding region or pGSTAg expressing the full-length TbERK8 coding region. One liter of Terrific Broth media containing 100 μg/ml Ampicillin and 30 μg/ml chloramphenicol in 2 L baffled flasks was inoculated with 25 mL from an overnight culture of Rosetta 2 strains harboring either the pGEX2T-hERK8 or pGSTAg-TbERK8 plasmid. Two baffled flasks were inoculated with each overnight strain and incubated and shaken at 175 RPM in a New Brunswick Innova 44R Incubator Shaker (Fischer Scientific, Pittsburgh, PA) at 37 °C until the cultures reached an O.D.600 of 0.94. Once the cultures in the flask reached the target O.D.600, the flasks were cooled to 4 °C in an ice water bath. The cooled cultures were induced by adding isopropyl β-D-1-thiogalactopyranoside (IPTG) to a final concentration of 0.1 mM and shaken at 16 °C for 16 hours at 175 RPM in a New Brunswick Innova 44R Incubator Shaker (Fischer Scientific, Pittsburgh, PA). On the next day, the cultures were pelleted by centrifugation at 9000 xg in a JLA 10.500 rotor (Beckman Coulter; Brea, CA), and the media was decanted. The pellet was flash-frozen in liquid nitrogen and then thawed on ice. The thawed pellet was resuspended in lysis buffer (25 mM Tris, 75 mM NaCl, 0.5% TritonX-100 and 0.5% Nonidet P-40, 1 mM phenylmethanesulfonyl fluoride, 1 mM benzamidine⋅HCl) and lysed using a microfluidizer M-110P from Microfluidics (Westwood, MA). The crude lysates were clarified by centrifugation at 140,000 xg in a 45Ti rotor (Beckman Coulter, Brea, CA) for 30 min at 4°C. The clarified lysate was loaded by gravity to a 3 mL glutathione agarose resin column (Cat# G-250–10, GOLDBIO, St. Louis, MO) formed in a 1.5 × 20 cm glass chromatography column (Cat# 7371522, Bio-Rad, Hercules, CA). The column was washed with 30 mL of PBS (pH 7.4) containing 1 mM DTT. Elution buffer (50 mM Tris buffer pH 8.0 containing 10 mM reduced glutathione and 1 mM DTT was added to the washed column), and 1 mL fractions were collected by gravity and examined by SDS-PAGE stained by Coomassie dye. Peak fractions pooled from the elution were dialyzed (4x 1:500 dilutions) in kinase buffer (30 mM Tris, pH 7.4, 10 mM MgCl2, 1 mM DTT, 5% glycerol).
(§2) We performed kinase assays in buffer K (30 mM Tris pH 7.4, 10 mM MgCl2, 1 mM DTT, 5% glycerol, 50 μM ATP, and 0.1 mg/mL BSA) at 30°C for 30 min in 30 μL reactions. GST-tagged HsERK8 and TbERK8 were tested using myelin basic protein (MBP) (Cat# 13–110, Millipore, Darmstadt, Germany) as the substrate at increasing concentrations to determine the optimal activity for the assay. ATP consumption was determined by adding equal volumes of the kinase assay reagent (Promega, Cat# V5601, Madison, WI) following the manufacturer’s protocol. Luminescence was measured using the microplate reader (SpectraMax L, Molecular Devices, Sunnyvale, CA).
(§3) These compounds were screened for kinase inhibition utilizing a luciferase-based assay. Briefly, the kinases were tested using MBP as the substrate at a 14-fold molar excess in 384-well flat-bottom white plates (BRANDTECH Scientific, Cat# 781681, Essex, CT). These compounds were tested at concentrations ranging from […] to 150 nM. The kinases plus MBP substrate reactions were incubated with each inhibitor for 30 minutes at 30°C. Equal volumes of kinase assay mix Promega (Cat# V5601, Madison, WI) were added to the kinase/inhibitor reaction after 30 minutes, following the manufacturer’s protocol. ATP luminescence was measured using a microplate reader (SpectraMax L, Molecular Devices, Sunnyvale, CA). IC50 values were calculated from assays done in triplicate by fitting the data using Prism 8.1.1 (GraphPad).

Assay [4] concerns the target T2, HsERK8. The assay can be described thus: Luciferase-based kinase inhibition assay (ATP luminescence), GST-tagged HsERK8 with MBP substrate. The class given is biochemical. Particulars: for raw luminescence, HsERK8: sheet Kinase_glo_080924_IFPS (2), replicate wells. How it is done: as §1, §2, §3
[5] abbreviates: at any tested concentration (10 mM to 150 nM).

SMILES strings stand for the structures. Values joined by “and” are separate entries in the source; they are usually repeats but may differ in a detail not shown here. Equal values may be shown once.

Consider `Cc1cc(Nc2nc(N[C@@H](C)c3ccc(F)cc3)c(C#N)cc2F)n[nH]1` [AZ960, (S)-5-Fluoro-2-(1-(4-fluorophenyl)ethylamino)-6-(5-methyl-1H-pyrazol-3-ylamino)nicotinonitrile], for which, on TbERK8 [1] (read-out: IC50 for TbERK8 (published)), the IC50 is 0.12 µM. The “inhibition of HsERK8” value at HsERK8 [2] is recorded as “inhibiting HsERK8 poorly”. Further, in the assay with T. brucei, the “effect on T. brucei parasite” value is on record as “killed the parasite”.
With `Cc1ncc(-c2ccnc(Nc3ccc(S(C)(=O)=O)cc3)n2)n1C(C)C` [AZD5438], the “inhibition of TbERK8” value on TbERK8 [1] is reported as “potent inhibitor”. The “inhibition of HsERK8” value at HsERK8 [2] is listed as “potent inhibitor”.
As to `C[C@]12CCC(=O)C=C1CC[C@H]1[C@@H]3CC[C@](O)(C(=O)CO)[C@@]3(C)C[C@H](O)[C@@]12F` [Fludrocortisone], the “raw luminescence, TbERK8” value is 1859.59 RLU and 2054.98 RLU and 1825.9 RLU at TbERK8 [3] (0.00015 (unit uncertain) compound); 756.861 RLU and 669.272 RLU and 696.222 RLU at TbERK8 [3] (0.00061 (unit uncertain) compound); 839.958 RLU and 756.861 RLU and 772.582 RLU on TbERK8 [3] (0.00244 (unit uncertain) compound); 471.634 RLU and 512.06 RLU and 359.34 RLU at TbERK8 [3] (0.00977 (unit uncertain) compound); 947.761 RLU and 727.664 RLU and 806.27 RLU on TbERK8 [3] (0.03906 (unit uncertain) compound); 579.437 RLU and 552.486 RLU and 756.861 RLU at TbERK8 [3] (0.15625 (unit uncertain) compound). In addition, the “raw luminescence, TbERK8” value is 736.648 RLU and 693.976 RLU and 673.763 RLU on TbERK8 [3] (0.62500 (unit uncertain) compound); 1122.94 RLU and 1073.53 RLU and 1107.22 RLU on TbERK8 [3] (2.50000 (unit uncertain) compound); 4505.23 RLU and 4303.1 RLU and 4100.97 RLU at TbERK8 [3] (10.00000 (unit uncertain) compound, signal = ATP left). On TbERK8 [3] (setting [5]), the “inhibition of kinase activity of TbERK8” value is given as “did not inhibit”. For the same compound, the “raw luminescence, HsERK8” value was 3640.57 RLU and 3844.94 RLU and 3813.5 RLU at HsERK8 [4] (0.00015 mM compound); 4118.94 RLU and 4395.18 RLU and 4579.35 RLU on HsERK8 [4] (0.00061 mM compound); 4696.13 RLU and 4963.39 RLU and 5212.68 RLU at HsERK8 [4] (0.00244 mM compound); 4772.49 RLU and 5547.32 RLU and 5378.88 RLU on HsERK8 [4] (0.00977 mM compound); 6005.48 RLU and 7079.01 RLU and 7018.37 RLU at HsERK8 [4] (0.03906 mM compound); 6266 RLU and 7171.09 RLU and 7216.01 RLU on HsERK8 [4] (0.15625 mM compound). The “raw luminescence, HsERK8” value at HsERK8 [4] (0.62500 mM compound) was 7168.84 RLU and 8628.66 RLU and 8372.63 RLU; on HsERK8 [4] (2.50000 mM compound), 6252.52 RLU and 7644.97 RLU and 7582.08 RLU; at HsERK8 [4] (10.00000 mM compound, signal = ATP left) it was 11251.8 RLU and 11631.4 RLU and 11334.9 RLU. The “inhibition of kinase activity of HsERK8” value at HsERK8 [4] (setting [5]) is on record as “did not inhibit”.
On to `Cn1cc(C2=C(c3cn(CCCSC(=N)N)c4ccccc34)C(=O)NC2=O)c2ccccc21` [Ro318220, 3-{3-[4-(1-Methyl-1H-indol-3-yl)-2,5-dioxo-2,5-dihydro-1H-pyrrol-3-yl]-1H-indol-1-yl}propyl carbamimidothioate], for which, at HsERK8 [2] (HsERK8 over TbERK8), the “greater potency inhibiting HsERK8 than TbERK8” value was 100–300 fold. In addition, the IC50 at HsERK8 [2] (read-out: IC50 for HsERK8 (reported)) was 0.005 to 0.01 µM.

By IC50 is commonly meant the concentration at which inhibition is half-maximal.

Source of the values: article PMC12445744, “Molecular docking to homology models of human and Trypanosoma brucei ERK8 that identified ortholog-specific inhibitors” (PLOS Neglected Tropical Diseases, 2025).
